Assay results published in patent publication US12410152B2, “Oxazole and thioazole-type cullin ring ubiquitin ligase compounds and uses thereof” (Proxygen GmbH, priority 2019, dated 2025).

System: KBM7 WT cells (global proteome)
Assay: Quantitative expression proteomics (TMT isobaric tagging), drug vs DMSO
Format: cell-based, human
Description: The mechanism by which the assayed molecules re-program a functional CRL4B complex based on the data shown could be that drug binding to CUL4B recruits a neo-substrate directly to the cullin backbone. Alternatively, drug binding could stabilize CUL4B function to boost time intervals where a functionally competent CUL4B complexes can be formed. Here, the word “functional” implies that the CUL4B backbone of this complex needs to be neddylated, and a CUL4B associated E2 ubiquitin-conjugating enzyme (UBE2G1) needs to be bound. FIG. 9 outlines one possible mechanism. Both predicted mechanisms of action would result in a functionally altered CRL4B complex, and thus an altered stability of drug-induced (neo-) substrates. In order to identify target proteins with a decreased abundance or, in other words, target proteins that become degraded by CRL4B after drug treatment, global proteome composition was measured using quantitative expression proteomics (TMT-labeling). In brief, KBM7 cells were drug treated for 12 hours, lysed, and subjected to isobaric tagging. Ensuing proteomics analysis quantified a total of 7,903 proteins at a minimum spectral count of 2. […] Data on essentiality are taken from Hart et al., G3, August 2017 (PMID: 28655737).
50×10^6 KBM7^WT cells per condition were collected, washed four times with ice-cold PBS, the supernatant aspirated and pellets snap-frozen in liquid N2. Each washed cell pellet was lysed separately in 40 μL of freshly prepared lysis buffer as previously described (see Mayor-Ruiz et al., Mol Cell 2019)
Offline Fractionation via RP-HPLC at high pH and 2D-RP/RP Liquid Chromatography Mass Spectrometry were performed as previously described (see Mayor-Ruiz et al., Mol Cell 2019).
Acquired raw data files were processed using the Proteome Discoverer 2.2.0 platform, utilizing the Sequest HT database search engine and Percolator validation software node (V3.04) to remove false positives with a false discovery rate (FDR) of 1% on peptide and protein level under strict conditions. Searches were performed with full tryptic digestion against the human SwissProt database v2017.06 with up to two allowed miscleavage sites. Oxidation (+15.9949 Da) of methionine was set as variable modification, whilst carbamidomethylation (+57.0214 Da) of cysteine residues and TMT 6-plex labelling of peptide N-termini and lysine residues were set as fixed modifications. Data was searched with mass tolerances of ±10 ppm and ±0.02 Da on the precursor and fragment ions, respectively. Results were filtered to include peptide spectrum matches (PSMs) with Sequest HT cross-correlation factor (Xcorr) scores of […] and high peptide confidence assigned by Percolator. MS^2 signal-to-noise values (S/N) values of TMT reporter ions were used to estimate peptide/protein abundance changes. PSMs with precursor isolation interference values of ≥ 50% and average TMT-reporter ion S/N≤10 were excluded from quantitation. Only unique peptides were used for TMT quantitation as well as for TOP3 label-free quantitation. Isotopic impurity correction and TMT channel-normalization based on total peptide amount were applied. For statistical analysis and p-value calculation, the integrated ANOVA hypothesis test was used. TMT ratios with p-values below 0.01 were considered as significant. Only proteins with >1 peptide detected and >1 unique peptide detected were considered for further analysis. For the calling of destabilized proteins, a log 2 fold change threshold (drug/DMSO) of −0.3 was applied.
Comparison of overall proteome-wide changes in KBM7 cells treated with IC020772.1 (2.5 μM), IC021313.2 (7 μM) or T6938051 (3.5 μM) for 5 h and 12h, using quantitative proteomics based on isobaric tagging.
The protein names in Table 4, Table 5 and Table 6 refer to the protein names as provided by HUGO Gene Nomenclature Committee (HGNC) database. […]

O=C(CSc1nnc2c(n1)[nH]c1ccccc12)Nc1ccc(Cl)cn1 [IC020772.1]
log2FC (IC020772.1/DMSO) (ACD (Q96AP0-1)): −0.567 | log2FC (IC020772.1/DMSO) (AEN (Q8WTP8-2)): −0.5522 | log2FC (IC020772.1/DMSO) (ANTXR2 (P58335-4)): −0.5522 | log2FC (IC020772.1/DMSO) (APEX2 (Q9UBZ4)): −1.224 | log2FC (IC020772.1/DMSO) (APOB (P04114)): −0.5002 | log2FC (IC020772.1/DMSO) (APOL2 (Q9BQE5)): −0.5585 | log2FC (IC020772.1/DMSO) (ARSK (Q6UWY0)): −0.486 | log2FC (IC020772.1/DMSO) (ASPM (Q8IZT6-1)): −0.5416 | log2FC (IC020772.1/DMSO) (BICD1 (Q96G01-1)): −0.5479 | log2FC (IC020772.1/DMSO) (BTBD10 (Q9BSF8-2)): −0.6371 | log2FC (IC020772.1/DMSO) (C8orf59 (Q8N0T1-1)): −1.442 | log2FC (IC020772.1/DMSO) (C12orf45 (Q8N5I9)): −0.5479 | log2FC (IC020772.1/DMSO) (CCDC32 (Q9BV29-2)): −1.221 | log2FC (IC020772.1/DMSO) (CCDC61 (Q9Y6R9-1)): −0.567 | log2FC (IC020772.1/DMSO) (CCNB1 (P14635-1)): −0.5416 | log2FC (IC020772.1/DMSO) (CCND3 (P30281-1)): −0.5479 | log2FC (IC020772.1/DMSO) (CDC6 (Q99741)): −1.201 | log2FC (IC020772.1/DMSO) (CDC7 (O00311-1)): −0.5585 | log2FC (IC020772.1/DMSO) (CDCA7 (Q9BWT1-1)): −1.311 | log2FC (IC020772.1/DMSO) (CEP70 (Q8NHQ1-1)): −0.4941 | log2FC (IC020772.1/DMSO) (CHEK1 (O14757-1)): −0.5522 | log2FC (IC020772.1/DMSO) (CLIP1 (P30622-2)): −0.4982 | log2FC (IC020772.1/DMSO) (CLK2 (P49760-1)): −0.5395 | log2FC (IC020772.1/DMSO) (CNTLN (Q9NXG0-2)): −0.5585 | log2FC (IC020772.1/DMSO) (CSPP1 (Q1MSJ5-3)): −0.4961 | log2FC (IC020772.1/DMSO) (CTNNAL1 (Q9UBT7-1)): −0.5564 | log2FC (IC020772.1/DMSO) (Cllorf98 (E9PRG8)): −0.6304 | log2FC (IC020772.1/DMSO) (DDX28 (Q9NUL7)): −0.5437 | log2FC (IC020772.1/DMSO) (DHFR (P00374-1)): −0.4961 | log2FC (IC020772.1/DMSO) (DNAJB12 (Q9NXW2-1)): −0.5458 | log2FC (IC020772.1/DMSO) (DNAJB14 (Q8TBM8-1)): −0.5374 | log2FC (IC020772.1/DMSO) (DPH3 (Q96FX2-1)): −0.5564 | log2FC (IC020772.1/DMSO) (DSG2 (Q14126)): −0.5692 | log2FC (IC020772.1/DMSO) (E2F4 (Q16254)): −0.486 | log2FC (IC020772.1/DMSO) (ERICH5 (Q6P6B1-1)): −0.6371 | log2FC (IC020772.1/DMSO) (EVI2B (P34910-2)): −0.6282 | log2FC (IC020772.1/DMSO) (FAM177A1 (Q8N128-2)): −0.486 | log2FC (IC020772.1/DMSO) (FNDC3B (Q53EP0-1)): −0.6371 | log2FC (IC020772.1/DMSO) (FYTTD1 (Q96QD9-1)): −1.279 | log2FC (IC020772.1/DMSO) (GAB1 (Q13480-2)): −0.5564 | log2FC (IC020772.1/DMSO) (GOSR1 (O95249-1)): −0.4961 | log2FC (IC020772.1/DMSO) (GPT2 (Q8TD30-1)): −0.5564 | log2FC (IC020772.1/DMSO) (GTSE1 (Q9NYZ3)): −0.4941 | log2FC (IC020772.1/DMSO) (HAUS1 (Q96CS2-1)): −0.5043 | log2FC (IC020772.1/DMSO) (HLTF (Q14527-1)): −0.5543 | log2FC (IC020772.1/DMSO) (IL27RA (Q6UWB1)): −0.5458 | log2FC (IC020772.1/DMSO) (JADE2 (Q9NQC1-1)): −0.5395 | log2FC (IC020772.1/DMSO) (JMJD6 (Q6NYC1-3)): −0.5522 | log2FC (IC020772.1/DMSO) (JUP (P14923)): −0.484 | number of proteins significantly downregulated (log2FC < -0.3), destabilized proteins (KBM7 cells, 12 hours, ~10xEC50, 7,903 proteins quantified): 869 | number of downregulated proteins known to be implicated in KBM7 proliferation (essential for KBM7 viability) (KBM7 cells, 12 hours, essentiality from Hart et al. 2017): 147 | log2FC (IC020772.1/DMSO) (KBTBD7 (Q8WVZ9)): −0.5353 | log2FC (IC020772.1/DMSO) (LIMD2 (Q9BT23)): −0.6282 | log2FC (IC020772.1/DMSO) (MTR (Q99707-1)): −0.5395 | log2FC (IC020772.1/DMSO) (NARF (Q9UHQ1-2)): −0.488 | log2FC (IC020772.1/DMSO) (NCR3LG1 (Q68D85)): −0.488 | log2FC (IC020772.1/DMSO) (NDC80 (O14777)): −0.5585 | log2FC (IC020772.1/DMSO) (NKAPD1 (Q6ZUT1-2)): −0.488 | log2FC (IC020772.1/DMSO) (NKIRAS1 (Q9NYS0)): −0.5374 | log2FC (IC020772.1/DMSO) (NLK (Q9UBE8)): −0.4982 | log2FC (IC020772.1/DMSO) (NPAT (Q14207)): −0.6439 | log2FC (IC020772.1/DMSO) (NUF2 (Q9BZD4)): −0.6282 | log2FC (IC020772.1/DMSO) (NXF3 (Q9H4D5-1)): −0.5628 | log2FC (IC020772.1/DMSO) (PCLAF (Q15004-1)): −1.248 | log2FC (IC020772.1/DMSO) (PDCD2 (Q16342-1)): −0.5585 | log2FC (IC020772.1/DMSO) (PEX19 (P40855-1)): −0.488 | log2FC (IC020772.1/DMSO) (PHF8 (Q9UPP1-4)): −0.4961 | log2FC (IC020772.1/DMSO) (PIAS4 (Q8N2W9)): −0.4901 | log2FC (IC020772.1/DMSO) (PIBF1 (Q8WXW3-1)): −0.5002 | log2FC (IC020772.1/DMSO) (PIP5K1A (Q99755-3)): −0.5479 | log2FC (IC020772.1/DMSO) (PRR14L (Q5THK1-1)): −0.5458 | log2FC (IC020772.1/DMSO) (PUM2 (Q8TB72-1)): −0.5585 | log2FC (IC020772.1/DMSO) (RELT (Q969Z4)): −0.4901 | log2FC (IC020772.1/DMSO) (RIOK2 (Q9BVS4-1)): −0.6394 | log2FC (IC020772.1/DMSO) (RLIM (Q9NVW2-1)): −0.5458 | log2FC (IC020772.1/DMSO) (RNF149 (Q8NC42)): −0.55 | log2FC (IC020772.1/DMSO) (RNF219 (Q5W0B1)): −0.6506 | log2FC (IC020772.1/DMSO) (RTEL1 (Q9NZ71-2)): −0.5395 | log2FC (IC020772.1/DMSO) (SCAND1 (P57086)): −1.377 | log2FC (IC020772.1/DMSO) (SCARF1 (Q14162-1)): −1.297 | log2FC (IC020772.1/DMSO) (SDHAF3 (Q9NRP4)): −0.6349 | log2FC (IC020772.1/DMSO) (SIK2 (Q9H0K1)): −0.4961 | log2FC (IC020772.1/DMSO) (SLC19A1 (P41440-1)): −0.6326 | log2FC (IC020772.1/DMSO) (SLCO4A1 (Q96BD0-1)): −0.5043 | log2FC (IC020772.1/DMSO) (SNAP29 (O95721)): −0.6282 | log2FC (IC020772.1/DMSO) (SPHK2 (Q9NRA0-5)): −0.6439 | log2FC (IC020772.1/DMSO) (STXBP4 (Q6ZWJ1-1)): −0.5043 | log2FC (IC020772.1/DMSO) (TFAP4 (Q01664)): −0.5585 | log2FC (IC020772.1/DMSO) (TMED1 (Q13445)): −0.5395 | log2FC (IC020772.1/DMSO) (TMEM126B (Q8IUX1-1)): −0.4961 | log2FC (IC020772.1/DMSO) (TPK1 (Q9H3S4-1)): −0.5543 | log2FC (IC020772.1/DMSO) (TPT1 (P13693-1)): −0.4982 | log2FC (IC020772.1/DMSO) (TRMT44 (Q8IYL2-1)): −0.5416 | log2FC (IC020772.1/DMSO) (TRUB2 (O95900-1)): −0.6371 | log2FC (IC020772.1/DMSO) (TTC21B (Q7Z4L5-1)): −0.4901 | log2FC (IC020772.1/DMSO) (UBE2A (P49459-1)): −0.4921 | log2FC (IC020772.1/DMSO) (UBE2J2 (Q8N2K1-3)): −0.55 | log2FC (IC020772.1/DMSO) (UBL5 (Q9BZL1)): −0.5522 | log2FC (IC020772.1/DMSO) (UBXN2B (Q14CS0)): −0.5374 | log2FC (IC020772.1/DMSO) (USP38 (Q8NB14-1)): −0.4941 | log2FC (IC020772.1/DMSO) (ZFAND3 (Q9H8U3)): −0.5543 | log2FC (IC020772.1/DMSO) (ZNF182 (P17025-1)): −0.6529
